Experimental data from patent USRE44733E1, “6-mercapto-cyclodextrin derivatives:reversal agents for drug-induced neuromuscular block” (Merck Sharp & Dohme B.V., priority 1999, dated 2014).

Test system: neuromuscular block, induced by the muscle relaxant rocuronium bromide (Roc)
Test: Reversal of neuromuscular blockade in anaesthetized guinea pigs in vivo
Settings: for concentration at maximum reversal (at conc.) / % max reversal: anaesthetized guinea pigs, rocuronium bromide steady-state block; for concentration at maximum reversal (at conc.): dose of reversal agent at which % max reversal was seen; for % max reversal: maximum reversal; for ED50: dose producing 50% reversal of steady-state neuromuscular block: anaesthetized male Dunkin-Hartley guinea pigs, steady-state block of 85-90% by continuous rocuronium bromide infusion, reversal agent given by jugular vein catheter, M. gastrocnemius contractions
Experimental: Reversal of Neuromuscular Blockade in Anaesthetized Guinea Pigs in vivo
Male Dunkin-Hartley guinea pigs (bodyweight: 600-900 g) were anaesthetized by i.p. administration of 10 mg/kg pentobarbitone and 1000 mg/kg urethane. After tracheotomy, the animals were artificially ventilated using a Harvard small animal ventilator. A catheter was placed into the carotid artery for continuous monitoring of arterial blood pressure and the taking of blood samples for blood gas analysis. Heart rate was derived from the blood pressure signal. The sciatic nerve was stimulated (rectangular pulses of 0.5 ms duration at 10 s (0.1 Hz) intervals at a supramaximal voltage, using a Grass S88 Stimulator) and the force of M. gastrocnemius contractions was measured using a Grass FT03 force-displacement transducer. Contractions, blood pressure and heart rate were recorded on a multichannel Grass 7D recorder. Catheters were placed in both jugular veins. One catheter was used for the continuous infusion of a neuromuscular blocking agent. The infusion rate of the neuromuscular blocking agent was increased until a steady-state block of 85-90% was obtained. The other catheter was used for administration of increasing doses of the reversal agent. During continuous infusion of the neuromuscular blocking agent, single doses of increasing concentration of reversal agent were given. At the end of the experiment, the measured force of muscle contractions was plotted against the concentration of reversal agent, and using regression analysis techniques, the 50% reversal concentration was calculated. Results for the reversal of the neuromuscular block, induced by the muscle relaxant rocuronium bromide (Roc), by the 6-mercapto-cyclodextrin derivatives of Examples 1-19 are presented in Table I. For comparison, the reversal activity of the parent compounds β-cyclodextrin and γ-cyclodextrin are included as well.

SMILES: O=C([O-])c1ccc(SCC2OC3OC4C(CO)OC(OC5C(CO)OC(OC6C(CO)OC(OC7C(CO)OC(OC8C(CO)OC(OC9C(CO)OC(OC%10C(CO)OC(OC2C(O)C3O)C(O)C%10O)C(O)C9O)C(O)C8O)C(O)C7O)C(O)C6O)C(O)C5O)C(O)C4O)cc1.[Na+] (stereo not drawn) [example 1, 6-mono-Deoxy-6-mono-(4-carboxyphenyl)thio-γ-cyclodextrin, Sodium Salt]
- concentration at maximum reversal (at conc.): (8.0) μmol · kg^−1
- % max reversal: 102%
- ED50: dose producing 50% reversal of steady-state neuromuscular block: 0.94 µmol/kg

SMILES: O=C([O-])c1ccccc1SC[C@H]1O[C@@H]2O[C@H]3[C@H](O)[C@@H](O)[C@@H](O[C@H]4[C@H](O)[C@@H](O)[C@@H](O[C@H]5[C@H](O)[C@@H](O)[C@@H](O[C@H]6[C@H](O)[C@@H](O)[C@@H](O[C@H]7[C@H](O)[C@@H](O)[C@@H](O[C@H]8[C@H](O)[C@@H](O)[C@@H](O[C@H]9[C@H](O)[C@@H](O)[C@@H](O[C@H]1[C@H](O)[C@H]2O)O[C@@H]9CO)O[C@@H]8CO)O[C@@H]7CO)O[C@@H]6CO)O[C@@H]5CO)O[C@@H]4CO)O[C@@H]3CO.[Na+] [example 2, 6mono-Deoxy-6-mono-(2-carboxyphenyl)thio-γ-cyclodextin, Sodium Salt]
- concentration at maximum reversal (at conc.): (11) μmol · kg^−1
- % max reversal: 93%
- ED50: dose producing 50% reversal of steady-state neuromuscular block: 1.30 µmol/kg

SMILES: O=C([O-])c1cccc(SCC2OC3OC4C(CSc5cccc(C(=O)[O-])c5)OC(OC5C(CSc6cccc(C(=O)[O-])c6)OC(OC6C(CSc7cccc(C(=O)[O-])c7)OC(OC7C(CSc8cccc(C(=O)[O-])c8)OC(OC8C(CSc9cccc(C(=O)[O-])c9)OC(OC9C(CSc%10cccc(C(=O)[O-])c%10)OC(OC%10C(CSc%11cccc(C(=O)[O-])c%11)OC(OC2C(O)C3O)C(O)C%10O)C(O)C9O)C(O)C8O)C(O)C7O)C(O)C6O)C(O)C5O)C(O)C4O)c1.[Na+].[Na+].[Na+].[Na+].[Na+].[Na+].[Na+].[Na+] (stereo not drawn) [example 3, 6-Per-deoxy-6-per-(3-carboxyphenyl)thio-γ-cyclodextrin, Sodium Salt]
- concentration at maximum reversal (at conc.): (1.28) μmol · kg^−1
- % max reversal: 102%
- ED50: dose producing 50% reversal of steady-state neuromuscular block: 0.28 µmol/kg

SMILES: O=C([O-])CCSC[C@H]1O[C@@H]2O[C@H]3[C@H](O)[C@@H](O)[C@@H](O[C@H]4[C@H](O)[C@@H](O)[C@@H](O[C@H]5[C@H](O)[C@@H](O)[C@@H](O[C@H]6[C@H](O)[C@@H](O)[C@@H](O[C@H]7[C@H](O)[C@@H](O)[C@@H](O[C@H]8[C@H](O)[C@@H](O)[C@@H](O[C@H]9[C@H](O)[C@@H](O)[C@@H](O[C@H]1[C@H](O)[C@H]2O)O[C@@H]9CSCCC(=O)[O-])O[C@@H]8CSCCC(=O)[O-])O[C@@H]7CSCCC(=O)[O-])O[C@@H]6CSCCC(=O)[O-])O[C@@H]5CSCCC(=O)[O-])O[C@@H]4CSCCC(=O)[O-])O[C@@H]3CSCCC(=O)[O-].[Na+].[Na+].[Na+].[Na+].[Na+].[Na+].[Na+].[Na+] [example 4, 6-Per-deoxy-6-per-(2-carboxyethyl)thio-γ-cyclodextrin, Sodium Salt]
- concentration at maximum reversal (at conc.): (0.53) μmol · kg^−1
- % max reversal: 97%
- ED50: dose producing 50% reversal of steady-state neuromuscular block: 0.09 µmol/kg

SMILES: O=C([O-])CCCCCSC[C@H]1O[C@@H]2O[C@H]3[C@H](O)[C@@H](O)[C@@H](O[C@H]4[C@H](O)[C@@H](O)[C@@H](O[C@H]5[C@H](O)[C@@H](O)[C@@H](O[C@H]6[C@H](O)[C@@H](O)[C@@H](O[C@H]7[C@H](O)[C@@H](O)[C@@H](O[C@H]8[C@H](O)[C@@H](O)[C@@H](O[C@H]9[C@H](O)[C@@H](O)[C@@H](O[C@H]1[C@H](O)[C@H]2O)O[C@@H]9CSCCCCCC(=O)[O-])O[C@@H]8CSCCCCCC(=O)[O-])O[C@@H]7CSCCCCCC(=O)[O-])O[C@@H]6CSCCCCCC(=O)[O-])O[C@@H]5CSCCCCCC(=O)[O-])O[C@@H]4CSCCCCCC(=O)[O-])O[C@@H]3CSCCCCCC(=O)[O-].[Na+].[Na+].[Na+].[Na+].[Na+].[Na+].[Na+].[Na+] [example 5, 6-Per-deoxy-6-per-(5-carboxypentyl)thio-γ-cyclodextrin, Sodium Salt]
- concentration at maximum reversal (at conc.): (2.5) μmol · kg^−1
- % max reversal: 78%
- ED50: dose producing 50% reversal of steady-state neuromuscular block: 0.74 µmol/kg

SMILES: O=C([O-])CCCSC[C@H]1O[C@@H]2O[C@H]3[C@H](O)[C@@H](O)[C@@H](O[C@H]4[C@H](O)[C@@H](O)[C@@H](O[C@H]5[C@H](O)[C@@H](O)[C@@H](O[C@H]6[C@H](O)[C@@H](O)[C@@H](O[C@H]7[C@H](O)[C@@H](O)[C@@H](O[C@H]8[C@H](O)[C@@H](O)[C@@H](O[C@H]9[C@H](O)[C@@H](O)[C@@H](O[C@H]1[C@H](O)[C@H]2O)O[C@@H]9CSCCCC(=O)[O-])O[C@@H]8CSCCCC(=O)[O-])O[C@@H]7CSCCCC(=O)[O-])O[C@@H]6CSCCCC(=O)[O-])O[C@@H]5CSCCCC(=O)[O-])O[C@@H]4CSCCCC(=O)[O-])O[C@@H]3CSCCCC(=O)[O-].[Na+].[Na+].[Na+].[Na+].[Na+].[Na+].[Na+].[Na+] [example 6, 6-Per-deoxy-6-per-(3carboxypropyl)thio-γ-cyclodextrin, Sodium Salt]
- concentration at maximum reversal (at conc.): (0.48) μmol · kg^−1
- % max reversal: 108%
- ED50: dose producing 50% reversal of steady-state neuromuscular block: 0.09 µmol/kg

SMILES: O=C([O-])CSC[C@H]1O[C@@H]2O[C@H]3[C@H](O)[C@@H](O)[C@@H](O[C@H]4[C@H](O)[C@@H](O)[C@@H](O[C@H]5[C@H](O)[C@@H](O)[C@@H](O[C@H]6[C@H](O)[C@@H](O)[C@@H](O[C@H]7[C@H](O)[C@@H](O)[C@@H](O[C@H]8[C@H](O)[C@@H](O)[C@@H](O[C@H]9[C@H](O)[C@@H](O)[C@@H](O[C@H]1[C@H](O)[C@H]2O)O[C@@H]9CSCC(=O)[O-])O[C@@H]8CSCC(=O)[O-])O[C@@H]7CSCC(=O)[O-])O[C@@H]6CSCC(=O)[O-])O[C@@H]5CSCC(=O)[O-])O[C@@H]4CSCC(=O)[O-])O[C@@H]3CSCC(=O)[O-].[Na+].[Na+].[Na+].[Na+].[Na+].[Na+].[Na+].[Na+] [example 7, 6-Per-deoxy-6-per-carboxymethylthio-γ-cyclodextrin, Sodium Salt]
- concentration at maximum reversal (at conc.): (1.92) μmol · kg^−1
- % max reversal: 88%
- ED50: dose producing 50% reversal of steady-state neuromuscular block: 0.21 µmol/kg

SMILES: O=C([O-])c1ccc(SC[C@H]2O[C@@H]3O[C@H]4[C@H](O)[C@@H](O)[C@@H](O[C@H]5[C@H](O)[C@@H](O)[C@@H](O[C@H]6[C@H](O)[C@@H](O)[C@@H](O[C@H]7[C@H](O)[C@@H](O)[C@@H](O[C@H]8[C@H](O)[C@@H](O)[C@@H](O[C@H]9[C@H](O)[C@@H](O)[C@@H](O[C@H]%10[C@H](O)[C@@H](O)[C@@H](O[C@H]2[C@H](O)[C@H]3O)O[C@@H]%10CSc2ccc(C(=O)[O-])cc2)O[C@@H]9CSc2ccc(C(=O)[O-])cc2)O[C@@H]8CSc2ccc(C(=O)[O-])cc2)O[C@@H]7CSc2ccc(C(=O)[O-])cc2)O[C@@H]6CSc2ccc(C(=O)[O-])cc2)O[C@@H]5CSc2ccc(C(=O)[O-])cc2)O[C@@H]4CSc2ccc(C(=O)[O-])cc2)cc1.[Na+].[Na+].[Na+].[Na+].[Na+].[Na+].[Na+].[Na+] [example 8, 6-Per-deoxy-6-per-(4-carboxyphenyl)thio-γ-cyclodextrin, Sodium Salt]
- concentration at maximum reversal (at conc.): (0.48) μmol · kg^−1
- % max reversal: 95%
- ED50: dose producing 50% reversal of steady-state neuromuscular block: 0.10 µmol/kg

SMILES: O=C([O-])Cc1ccc(SC[C@H]2O[C@@H]3O[C@H]4[C@H](O)[C@@H](O)[C@@H](O[C@H]5[C@H](O)[C@@H](O)[C@@H](O[C@H]6[C@H](O)[C@@H](O)[C@@H](O[C@H]7[C@H](O)[C@@H](O)[C@@H](O[C@H]8[C@H](O)[C@@H](O)[C@@H](O[C@H]9[C@H](O)[C@@H](O)[C@@H](O[C@H]%10[C@H](O)[C@@H](O)[C@@H](O[C@H]2[C@H](O)[C@H]3O)O[C@@H]%10CSc2ccc(CC(=O)[O-])cc2)O[C@@H]9CSc2ccc(CC(=O)[O-])cc2)O[C@@H]8CSc2ccc(CC(=O)[O-])cc2)O[C@@H]7CSc2ccc(CC(=O)[O-])cc2)O[C@@H]6CSc2ccc(CC(=O)[O-])cc2)O[C@@H]5CSc2ccc(CC(=O)[O-])cc2)O[C@@H]4CSc2ccc(CC(=O)[O-])cc2)cc1.[Na+].[Na+].[Na+].[Na+].[Na+].[Na+].[Na+].[Na+] [example 9, 6-Per-deoxy-6-per-(4-carboxymethylphenyl)thio-γ-cyclodextrin, Sodium Salt]
- concentration at maximum reversal (at conc.): (0.50) μmol · kg^−1
- % max reversal: 100%
- ED50: dose producing 50% reversal of steady-state neuromuscular block: 0.13 µmol/kg

SMILES: NC(=O)CCCSCC1OC2OC3C(CSCCCC(N)=O)OC(OC4C(CSCCCC(N)=O)OC(OC5C(CSCCCC(N)=O)OC(OC6C(CSCCCC(N)=O)OC(OC7C(CSCCCC(N)=O)OC(OC8C(CSCCCC(N)=O)OC(OC9C(CSCCCC(N)=O)OC(OC1C(O)C2O)C(O)C9O)C(O)C8O)C(O)C7O)C(O)C6O)C(O)C5O)C(O)C4O)C(O)C3O (stereo not drawn) [example 10, 6-Per-deoxy-6-per(3-amidopropyl)thio-γ-cyclodextrin]
- concentration at maximum reversal (at conc.): (33) μmol · kg^−1
- % max reversal: 94%
- ED50: dose producing 50% reversal of steady-state neuromuscular block: 0.57 µmol/kg
